Patent US9522910B2, “Protein kinase inhibitors (variants), use thereof in treating oncological diseases and a pharmaceutical composition based thereon” (Obshchestvo s ogranichennoy otvetstvennostyou “Fusion …, priority 2011, dated 2016)
Values belong to the molecule of their own block, whether it stands above or below them.

Assays:
HCT116 cells = assay: Animal model of solid intestine tumors (HCT116 tumors in SCID mice); assay type: in vivo, mouse; details: 30 mg/kg; end of the therapy (20 days); ratio of mean tumor volume in therapeutic and control groups
Protocol: 200 μl of HCT116 cells (2.5×10^7 cells/ml) were subcutaneously injected in right flank of SCID mice. When tumor volume achieved ˜200 mm^3 mice were randomized and separated into two groups: control and therapeutic. Control group mice received 0.3 ml of 0.5% methylcellulose solution, therapeutic group received 0.5% methylcellulose with suspended therapeutic compound (30 mg/kg). Twice a week animals animal weight, toxic effects and tumor volume were measured. Experiment was stopped upon tumor reached volume of 1200 mm3 of when animal lost 10% of body weight, or 20% of body weight upon 2 consecutive weightings. Ratio of the mean tumor volume in therapeutic and control groups (% T/C) was used to evaluate efficacy of tumor growth inhibition upon the end of the therapy (20 days). Obtained data was subjected to statistical reliability Dunnet test. Efficacies of tested compounds in 30 mg/kg dose are depicted in Table 4.

[1] = in vivo; cited from earlier work
Abl = Abl (Homo sapiens (Human), UniProt P00519); assay: Kinase inhibition assay (33P transfer to plate-bound substrate), Abl; assay type: biochemical; details: compound concentration that causes 2-times reduction of kinase enzymatic activity
Description: (§1) Kinases as either kinase domain or full construct fused to glutathione S-transferase (GST) or poly-Histidine tagged fusion proteins were expressed in baculovrius-infected insect cells (e.g. Sf21) or in E. Coli. They are purified to near homogeneity by affinity chromatography as previously described (Lehr et al., Production, purification and characterization of non-myristylated human T-cell protein tyrosine kinase in a baculovirus expression system, Gene, 1996; 169(2), 275-279; Gish et al., Bacterial expression, purification and preliminary kinetic description of the kinase domain of v-fps, Protein Eng. 8, 6, 609-614). In some instances, kinases are co-expressed or mixed with purified or partially purified regulatory polypeptides prior to measurement of activity.
(§2) Kinase activity and inhibition was measured by established protocols (see e.g. Braunwalder et al., A Solid-Phase Assay for the Determination of Protein Tyrosine Kinase Activity of c-src Using Scintillating Microtitration Plates, Anal Biochem. 234, 1, 23-26). In such cases, the transfer of ^33PO4 from ATP to the synthetic substrates poly(Glu, Tyr) 4:1 or poly(Arg, Ser) 3:1 attached to the bioactive surface of microtiter plates is taken as a measure of enzyme activity. After an incubation period, the amount of phosphate transferred is measured by first washing the plate with 0.5% phosphoric acid, adding liquid scintillant, and then counting in a liquid scintillation detector. The IC50 is determined by the concentration of compound that causes a 50% reduction in the amount of ^33P incorporated onto the substrate bound to the plate.

[2] = system: K562 human chronic myelogenous leukemia cells; assay: Antiproliferative activity on K562 cells (MTT); assay type: cell-based; details: K562, 72 h, compound concentration that causes 2-times reduction of viable cells, 3 days
Protocol: Moreover, antiproliferative activity of the compounds of the present invention can be studied on K562 human chronic myelogenous leukemia cells.
Human myelogenous leukemia K562 cells K562 were cultivated in RPMI 1640 growth medium. K562 cells were transferred to 96-well plated in duplicated (final concentration 2×10^4 cells/ml) and testing compound solution in growth medium was added at different concentrations (final volume is 100 μl per well). Solid compounds were first dissolved in DMSO, then the solution was diluted with DMSO to necessary concentration, mixed with equal volume of growth medium and was transferred to cell plates. The final compound concentrations of compounds was 0.5 nM to 10 μM. DMSO at same percentage is used as control. After compound was incubated with cells for 3 days, the numbers of active cells are measured. It was achieved by removing old medium, addition of 100 μl of fresh medium and 20 μl MIT solution containing 5 mg/ml PBS. Plates was incubated for 2 h at 37° C., then 100 μl DMSO was added at each well and stirred for 1 min. Then the absorbance was measured at 570 nm and percent of proliferation inhibition related to the control (without testing compounds) was determined.

Abl (T315I) = Abl (T315I) (Homo sapiens (Human), UniProt P00519, T315I); assay: Kinase inhibition assay (33P transfer to plate-bound substrate), Abl (T315I); assay type: biochemical; details: compound concentration that causes 2-times reduction of kinase enzymatic activity
Description: as §1, §2

MV4-11 cells = assay: Animal model of acute myelogenous leukemia (MV4-11 tumors in SCID mice); assay type: in vivo, mouse; details: 30 mg/kg; end of the therapy (20 days); ratio of mean tumor volume in therapeutic and control groups
Protocol: MV4-11 cells (1×10^7 in serum-free medium) were subcutaneously injected in right flank of SCID female mice. When tumor volume achieved ˜200 mm^3 mice were separated into two groups: control and therapeutic. Control group mice received 0.3 ml of 0.5% methylcellulose solution, therapeutic group received 0.3 ml of 0.5% methylcellulose with suspended therapeutic compound. Tumor volume (mm^3) was calculated as follows: V=L×W^2×0.5, where L—tumor length in mm, W—width in mm. Ratio of the mean tumor volume in therapeutic and control groups (% T/C) on the end of the therapy (20 days) was used to evaluate efficacy of tumor growth inhibition. Obtained data was subjected to statistical reliability Dunnet test. Efficacies of tested compounds in 30 mg/kg dose are depicted in Table 3.

A549 cells = assay: Animal model of non-small cell lung cancer (A549 tumors in nude mice); assay type: in vivo, mouse; details: 30 mg/kg, oral gavage; end of the therapy (20 days); ratio of mean tumor volume in therapeutic and control groups
Protocol: Male nude mice were used for this experiment. A549 cells (1×10^7) in 0.2 ml of Matrigel (BD Pharmingen) solution were injected in left mice leg upon ketamine-xylazine anesthesia. After a week of cell inoculation mice were separated into control and therapeutic groups. Control group mice received 0.3 ml of 0.5% methylcellulose solution, therapeutic group received 0.3 ml of 0.5% methylcellulose with suspended therapeutic compound (30 mg/kg). Tumor volume (mm^3) was calculated as follows: V=L×W^2×0.5. Compounds were administered using oral gavage. Treatment continued for 20 days. Ratio of the mean tumor volume in therapeutic and control groups (% T/C) was used to evaluate efficacy of tumor growth inhibition upon the end of the therapy (20 days). Obtained data was subjected to statistical reliability Dunnet test. Efficacies of tested compounds in 30 mg/kg dose are depicted in Table 5.

[3] = system: Ba/F3 cells expressing either native or mutant (T315I) Bcr-Abl kinase; assay: Animal model of chronic myelogenous leukemia (Ba/F3 Bcr-Abl tumors in nude balb/c mice); assay type: in vivo, mouse; details: 30 mg/kg, oral gavage once daily, 10 days; ratio of mean tumor volume in therapeutic and control groups
Protocol: Ba/F3 cells expressing either native or mutant (T315I) Bcr-Abl kinase, were inoculated in the right flank of nude balb/c mouse (100 μl of cell suspension in serum-free medium, 3×10^6 cells/ml). Mice were randomly assigned to the groups upon tumor volume of ˜500 mm^3. Once daily vehicle (0.5% methylcellulose I in water) was given using oral gavage to the control group, and substance suspension was given to therapeutic group during 10 days. In a typical experiment malignant cells (e.g., K562 cells, or Ba/F3 cells, expressing native of mutated Bcr-Abl kinase) are injected to mouse with reduced immunity (e.g. nude or SCID mice). Tumor volume (mm^3) was calculated as follows: V=L×W^2×0.5, where L—tumor length in mm, W—width in mm. Ratio of the mean tumor volume in therapeutic and control groups (% T/C) was used to evaluate efficacy of tumor growth inhibition. Obtained data was subjected to statistical reliability Dunnet test. Efficacies of tested compounds in 30 mg/kg dose are depicted in Table 2.

SMILES: Cc1ccc(C(=O)Nc2ccc(CN3CCN(C)CC3)c(C(F)(F)F)c2)cc1C#Cc1nnc2cccc(Cl)n12 [drawing 134]
% T/C (HCT116 cells): <40%

SMILES: Cc1nc(Nc2ncc(C(=O)Nc3c(C)cccc3Cl)s2)cc(N2CCN(CCO)CC2)n1 [dasatinib]
bioavailability [1]: 14-34%

SMILES: Cc1ccc(C(=O)Nc2ccc(CN3CCN(C)CC3)c(C(F)(F)F)c2)cc1C#Cc1cnc2cccnn12 [ponatinib]
bioavailability [1]: 20%

IC50 (Abl): < 20 nM | IC50 [2]: < 100 nM | IC50 (Abl (T315I)): < 20 nM
SMILES: Cc1ccc(C(=O)Nc2ccc(CN3CCN(C)CC3)c(C(F)(F)F)c2)cc1C#Cc1nnc2cc(C(N)=O)ccn12

SMILES: Cc1ccc2nnc(C#Cc3cc(C(=O)Nc4ccc(CN5CCN(C)CC5)c(C(F)(F)F)c4)ccc3C)n2n1 [drawing 132]
% T/C (MV4-11 cells): <40%

SMILES: Cc1ccc(C(=O)Nc2ccc(CN3CCN(C)CC3)c(C(F)(F)F)c2)cc1C#Cc1nnc2ccccn12 [drawing 133]
% T/C (HCT116 cells): <40%

SMILES: Cc1ccc2nnc(C#Cc3cc(C(=O)Nc4ccc(CN5CCN(C)CC5)c(C(F)(F)F)c4)ccc3C)n2n1 [drawing 144]
% T/C (A549 cells): <40%

SMILES: Cc1ccc(C(=O)Nc2ccc(CN3CCN(C)CC3)c(C(F)(F)F)c2)cc1C#Cc1nnc2ccccn12 [drawing 121]
% T/C [3]: <40%

IC50 (Abl): < 20 nM | IC50 [2]: < 100 nM | IC50 (Abl (T315I)): < 20 nM
SMILES: Cc1ccc(C(=O)Nc2ccc(CN3CCN(C)CC3)c(C(F)(F)F)c2)cc1C#Cc1nnc2ccccn12 [drawing 113]

SMILES: Cc1ccc(C(=O)Nc2ccc(CN3CCN(C)CC3)c(C(F)(F)F)c2)cc1C#Cc1nnc2cc(F)ccn12 [drawing 143]
% T/C (A549 cells): <40%

SMILES: Cc1ccc(C(=O)Nc2ccc(CN3CC[C@@H](N(C)C)C3)c(C(F)(F)F)c2)cc1C#Cn1cnc2ccccc21 [drawing 141]
% T/C (A549 cells): <40%

SMILES: Cc1ccc(C(=O)Nc2ccc(CN3CC[C@@H](N(C)C)C3)c(C(F)(F)F)n2)cc1C#Cn1cnc2ccccc21 [drawing 136]
% T/C (HCT116 cells): <40%

IC50 (Abl): < 20 nM | IC50 [2]: < 100 nM | IC50 (Abl (T315I)): < 20 nM
SMILES: Cc1ccc(C(=O)Nc2ccc(CN3CCN(C)CC3)c(C(F)(F)F)c2)cc1C#Cn1cnc2cc(C(=O)O)ccc21

SMILES: Cc1ccc(C(=O)Nc2ccc(CN3CCN(C)CC3)c(C(F)(F)F)c2)cc1C#Cc1nnc2ccccn12 [drawing 127]
% T/C (MV4-11 cells): <40%

SMILES: Cc1ccc(C(=O)Nc2ccc(CN3CC[C@@H](N(C)C)C3)c(C(F)(F)F)c2)cc1C#Cn1cnc2ccccc21 [drawing 123]
% T/C [3]: <40%

SMILES: Cc1ccc(C(=O)Nc2ccc(CN3CC[C@@H](N(C)C)C3)c(C(F)(F)F)c2)cc1C#Cn1cnc2ccccc21 [drawing 129]
% T/C (MV4-11 cells): <40%

SMILES: Cc1ccc(C(=O)Nc2ccc(CN3CCN(C)CC3)c(C(F)(F)F)c2)cc1C#Cc1nnc2cccc(Cl)n12 [drawing 140]
% T/C (A549 cells): <40%

IC50 (Abl): < 20 nM | IC50 [2]: < 100 nM | IC50 (Abl (T315I)): < 20 nM
SMILES: Cc1ccc(C(=O)Nc2ccc(CN3CCN(C)CC3)c(C(F)(F)F)c2)cc1C#Cc1nnc2cc(C(=O)O)ccn12

IC50 (Abl): < 20 nM | IC50 [2]: < 100 nM | IC50 (Abl (T315I)): < 20 nM
SMILES: Cc1ccc(C(=O)Nc2ccc(CN3CCN(C)CC3)c(C(F)(F)F)c2)cc1C#Cc1nnc2cc(C(=O)O)cnn12

SMILES: Cc1ccc(C(=O)Nc2ccc(CN3CCN(C)CC3)c(C(F)(F)F)c2)cc1C#Cc1nnc2cc(F)ccn12 [drawing 131]
% T/C (MV4-11 cells): <40%

SMILES: Cc1cn(-c2cc(NC(=O)c3ccc(C)c(Nc4nccc(-c5cccnc5)n4)c3)cc(C(F)(F)F)c2)cn1 [nilotinib]
bioavailability [1]: 30%

IC50 (Abl): < 20 nM | IC50 [2]: < 100 nM | IC50 (Abl (T315I)): < 20 nM
SMILES: Cc1ccc(C(=O)Nc2ccc(CN3CCN(C)CC3)c(C(F)(F)F)c2)cc1C#Cc1nnc2cccnn12

SMILES: Cc1ccc(C(=O)Nc2ccc(CN3CC[C@@H](N(C)C)C3)c(C(F)(F)F)n2)cc1C#Cn1cnc2ccccc21 [drawing 124]
% T/C [3]: <40%

SMILES: Cc1ccc(C(=O)Nc2ccc(CN3CCN(C)CC3)c(C(F)(F)F)c2)cc1C#Cc1nnc2cc(F)ccn12 [drawing 137]
% T/C (HCT116 cells): <40%

SMILES: Cc1ccc(C(=O)Nc2ccc(CN3CC[C@@H](N(C)C)C3)c(C(F)(F)F)c2)cc1C#Cn1cnc2ccccc21 [drawing 135]
% T/C (HCT116 cells): <40%

IC50 (Abl): < 20 nM | IC50 [2]: < 100 nM | IC50 (Abl (T315I)): < 20 nM
SMILES: CN1CCN(Cc2ccc(NC(=O)c3ccc(F)c(C#Cc4nnc5ccccn45)c3)cc2C(F)(F)F)CC1

SMILES: Cc1ccc(C(=O)Nc2ccc(CN3CC[C@@H](N(C)C)C3)c(C(F)(F)F)n2)cc1C#Cn1cnc2ccccc21 [drawing 142]
% T/C (A549 cells): <40%

SMILES: Cc1ccc(C(=O)Nc2ccc(CN3CCN(C)CC3)c(C(F)(F)F)c2)cc1C#Cc1nnc2ccccn12 [drawing 139]
% T/C (A549 cells): <40%

SMILES: Cc1ccc(C(=O)Nc2ccc(CN3CCN(C)CC3)c(C(F)(F)F)c2)cc1C#Cc1nnc2cccc(Cl)n12 [drawing 128]
% T/C (MV4-11 cells): <40%

SMILES: Cc1ccc(C(=O)Nc2ccc(CN3CCN(C)CC3)c(C(F)(F)F)c2)cc1C#Cc1nnc2cc(F)ccn12 [drawing 125]
% T/C [3]: <40%

SMILES: Cc1ccc2nnc(C#Cc3cc(C(=O)Nc4ccc(CN5CCN(C)CC5)c(C(F)(F)F)c4)ccc3C)n2n1 [drawing 138]
% T/C (HCT116 cells): <40%

SMILES: Cc1ccc2nnc(C#Cc3cc(C(=O)Nc4ccc(CN5CCN(C)CC5)c(C(F)(F)F)c4)ccc3C)n2n1 [drawing 126]
% T/C [3]: <40%

SMILES: Cc1ccc(C(=O)Nc2ccc(CN3CC[C@@H](N(C)C)C3)c(C(F)(F)F)n2)cc1C#Cn1cnc2ccccc21 [drawing 130]
% T/C (MV4-11 cells): <40%

SMILES: Cc1ccc(C(=O)Nc2ccc(CN3CCN(C)CC3)c(C(F)(F)F)c2)cc1C#Cc1nnc2cccc(Cl)n12 [drawing 122]
% T/C [3]: <40%
